Laboratory results: patent US20090111795A1, “Multimers of Heterocyclic Compounds and Their Use” (priority 2005, published 2009)

melting point: 138 to 143 °C
SMILES: CCOC(=O)C1=C(C)N(c2cccc(C(F)(F)F)c2)C(=O)N(CC(=O)NCC[N+](C)(C)CCNC(=O)CN2C(=O)N(c3cccc(C(F)(F)F)c3)C(C)=C(C(=O)OCC)[C@H]2c2ccc(C#N)cc2)[C@@H]1c1ccc(C#N)cc1.O=C([O-])CCC(=O)O
